Data taken from US9382197B2, “Substituted hydroxamic acids and uses thereof” (Millennium Pharmaceuticals, Inc., priority 2010, dated 2016).

Molecular target: T1, purified human HDAC6 (Homo sapiens, UniProt Q9UBN7)
T1 construct: purchased BPS Bioscience 5006
T1 sequence (Q9UBN7 1-1215): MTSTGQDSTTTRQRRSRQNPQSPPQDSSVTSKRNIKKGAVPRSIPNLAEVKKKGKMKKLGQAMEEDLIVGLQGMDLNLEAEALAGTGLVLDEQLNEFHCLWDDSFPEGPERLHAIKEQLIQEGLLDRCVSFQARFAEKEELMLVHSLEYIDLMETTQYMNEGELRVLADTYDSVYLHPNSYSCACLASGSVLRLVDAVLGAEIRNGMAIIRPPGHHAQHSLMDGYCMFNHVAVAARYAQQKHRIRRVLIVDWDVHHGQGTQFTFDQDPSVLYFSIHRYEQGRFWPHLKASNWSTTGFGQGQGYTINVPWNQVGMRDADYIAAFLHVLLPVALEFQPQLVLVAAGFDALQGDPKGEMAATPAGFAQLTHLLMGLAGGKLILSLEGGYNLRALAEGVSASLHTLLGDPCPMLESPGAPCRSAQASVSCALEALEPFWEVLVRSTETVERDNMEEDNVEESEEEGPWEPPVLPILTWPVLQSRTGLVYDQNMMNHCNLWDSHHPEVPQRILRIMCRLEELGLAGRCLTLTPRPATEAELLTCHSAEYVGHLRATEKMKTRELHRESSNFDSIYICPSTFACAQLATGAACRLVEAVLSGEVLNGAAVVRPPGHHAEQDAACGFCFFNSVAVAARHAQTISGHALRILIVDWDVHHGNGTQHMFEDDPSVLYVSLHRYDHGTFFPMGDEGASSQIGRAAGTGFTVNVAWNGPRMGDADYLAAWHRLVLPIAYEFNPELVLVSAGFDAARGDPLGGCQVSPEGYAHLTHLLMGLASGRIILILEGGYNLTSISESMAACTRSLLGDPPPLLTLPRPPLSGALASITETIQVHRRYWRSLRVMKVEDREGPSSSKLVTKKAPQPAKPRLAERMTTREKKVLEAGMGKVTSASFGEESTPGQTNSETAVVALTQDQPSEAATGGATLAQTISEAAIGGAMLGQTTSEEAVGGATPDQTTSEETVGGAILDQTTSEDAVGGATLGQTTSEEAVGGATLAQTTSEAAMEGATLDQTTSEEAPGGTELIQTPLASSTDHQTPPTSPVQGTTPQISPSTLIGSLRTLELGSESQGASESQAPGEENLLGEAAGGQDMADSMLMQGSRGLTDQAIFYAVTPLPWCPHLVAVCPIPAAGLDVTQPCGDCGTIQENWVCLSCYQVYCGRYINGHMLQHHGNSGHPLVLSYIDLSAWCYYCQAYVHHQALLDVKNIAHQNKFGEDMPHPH
Experiment: HDAC6 Enzyme Assay
Assay type: biochemical
Summary of the method: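 Deacetylated product quantified after trypsin digestion as released AMC (340/460 nm), following a 1 h, 30 °C reaction of human HDAC6 with Ac-RGK(Ac)-AMC peptide, quenched by trichostatin A. IC50 derived from DMSO-normalized curves.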

[1] = purified human HDAC6, substrate Ac-Arg-Gly-Lys(Ac)-AMC, 1 hour at 30° C., reported as bins
[2] = bin: greater than 500 nM and less than 1 μM (lower bound in nM, upper bound in μM)

SMILES | IC50 [1] | further results
CC(NC(=O)Cc1c(F)cccc1Cl)c1ccc(C(=O)NO)cc1 (stereo not shown) [Compound I-24, 4-(1-{[(2-chloro-6-fluorophenyl)acetyl]amino}ethyl)-N-hydroxybenzamide] | – | IC50 (bin: greater than 1 μM): > 1000 nM
CC(NC(=O)c1cc2ccccc2n1C)c1ccc(C(=O)NO)cc1 (stereo not shown) [Compound I-98, N-(1-{4-[(hydroxyamino)carbonyl]phenyl}ethyl)-1-methyl-1H-indole-2-carboxamide] | < 100 nM | –
CC(NC(=O)Cc1cc(C(F)(F)F)cc(C(F)(F)F)c1)c1cccc(C(=O)NO)c1 (stereo not shown) [Compound I-362, 3-[1-({[3,5-bis(trifluoromethyl)phenyl]acetyl}amino)ethyl]-N-hydroxybenzamide] | – | IC50 (bin: greater than 1 μM): > 1000 nM
CC(NC(=O)c1ccc2ccccc2n1)c1ccc(C(=O)NO)cc1 (stereo not shown) [Compound I-128, N-(1-{4-[(hydroxyamino)carbonyl]phenyl}ethyl)quinoline-2-carboxamide] | < 100 nM | –
Cc1cc(C)c(C(=O)NC(C)c2cccc(C(=O)NO)c2)[nH]1 (stereo not shown) [Compound I-91, N-(1-{3-[(hydroxyamino)carbonyl]phenyl}ethyl)-3,5-dimethyl-1H-pyrrole-2-carboxamide] | – | IC50 [2]: 500 to 1000 nM
C[C@@H](NC(=O)c1cc2oc(-c3ccccc3)cc2n1C)c1cccc(C(=O)NO)c1 [Compound I-16, N-((1R)-1-{3-[(hydroxyamino)carbonyl]phenyl}ethyl)-4-methyl-2-phenyl-4H-furo[3,2-b]pyrrole-5-carboxamide] | 100 to 500 nM | –
CC(C)C(NC(=O)c1ccc2nsnc2c1)c1ccc(C(=O)NO)cc1 (stereo not shown) [Compound I-135, N-(1-{4-[(hydroxyamino)carbonyl]phenyl}-2-methylpropyl)-2,1,3-benzothiadiazole-5-carboxamide] | < 100 nM | –
CC(NC(=O)c1c(Cl)cccc1Cl)c1cccc(C(=O)NO)c1 (stereo not shown) [Compound I-366, 2,6-dichloro-N-(1-{3-[(hydroxyamino)carbonyl]phenyl}ethyl)benzamide] | – | IC50 (bin: greater than 1 μM): > 1000 nM
CC(C)C(NC(=O)C(c1ccccc1)C(C)C)c1ccc(C(=O)NO)cc1 (stereo not shown) [Compound I-289, N-hydroxy-4-{2-methyl-1-[(3-methyl-2-phenylbutanoyl)amino]propyl}benzamide] | – | IC50 (bin: greater than 1 μM): > 1000 nM
CC(NC(=O)c1cn2cc(Cl)ccc2n1)c1ccc(C(=O)NO)cc1 (stereo not shown) [Compound I-35, 6-chloro-N-(1-{4-[(hydroxyamino)carbonyl]phenyl}ethyl)imidazo[1,2-a]pyridine-2-carboxamide] | < 100 nM | –
CC(C)C(NC(=O)c1cc2cc(Cl)ccc2o1)c1ccc(C(=O)NO)cc1 (stereo not shown) [Compound I-130, 5-chloro-N-(1-{4-[(hydroxyamino)carbonyl]phenyl}-2-methylpropyl)-1-benzofuran-2-carboxamide] | < 100 nM | –
CC(NC(=O)C1(c2ccc(Cl)cc2)CCC1)c1ccc(C(=O)NO)cc1 (stereo not shown) [Compound I-110, 4-[1-({[1-(4-chlorophenyl)cyclobutyl]carbonyl}amino)ethyl]-N-hydroxybenzamide] | < 100 nM | –
CC(C)(C)C(NC(=O)c1cc(C(F)(F)F)cc(C(F)(F)F)c1)c1ccc(C(=O)NO)cc1 (stereo not shown) [Compound I-52, N-(1-{4-[(hydroxyamino)carbonyl]phenyl}-2,2-dimethylpropyl)-3,5-bis(trifluoromethyl)benzamide] | – | IC50 [2]: 500 to 1000 nM

Further lines, with some results ahead:

IC50 [1] | SMILES | further results
< 100 nM | CCC[C@@H](NC(=O)c1cccn1C)c1ccc(C(=O)NO)cc1 [Compound I-281, N-((1R)-1-{4-[(hydroxyamino)carbonyl]phenyl}butyl)-1-methyl-1H-pyrrole-2-carboxamide] | –
< 100 nM | CC(C)C(NC(=O)c1csc(-c2ccccc2)n1)c1ccc(C(=O)NO)cc1 (stereo not shown) [Compound I-172, N-(1-{4-[(hydroxyamino)carbonyl]phenyl}-2-methylpropyl)-2-phenyl-1,3-thiazole-4-carboxamide] | –
< 100 nM | Cc1ccc(C(=O)NC(C)c2ccc(C(=O)NO)cc2)s1 (stereo not shown) [Compound I-147, N-(1-{4-[(hydroxyamino)carbonyl]phenyl}ethyl)-5-methylthiophene-2-carboxamide] | –
100 to 500 nM | CC(NS(=O)(=O)c1ccc(C(F)(F)F)cc1)c1ccc(C(=O)NO)cc1 (stereo not shown) [Compound I-488, N-hydroxy-4-[1-({[4-(trifluoromethyl)phenyl]sulfonyl}amino)ethyl]benzamide] | IC50 (bin: greater than 1 μM): > 1000 nM
< 100 nM | Cc1cccc(C(=O)NC(C)c2ccc(C(=O)NO)cc2)c1 (stereo not shown) [Compound I-295, N-(1-{4-[(hydroxyamino)carbonyl]phenyl}ethyl)-3-methylbenzamide] | –
< 100 nM | CCc1ccc(NC(=O)NC(C)c2ccc(C(=O)NO)cc2)cc1 (stereo not shown) [Compound I-381, 4-[1-({[(4-ethylphenyl)amino]carbonyl}amino)ethyl]-N-hydroxybenzamide] | –
< 100 nM | CCC[C@@H](NC(=O)c1cc(Cl)c(Cl)n1C)c1ccc(C(=O)NO)cc1 [Compound I-245, 4,5-dichloro-N-((1R)-1-{4-[(hydroxyamino)carbonyl]phenyl}butyl)-1-methyl-1H-pyrrole-2-carboxamide] | –
100 to 500 nM | CC(NC(=O)C1C(C)(C)C1(C)C)c1ccc(C(=O)NO)cc1 (stereo not shown) [Compound I-372, N-hydroxy-4-(1-{[(2,2,3,3-tetramethylcyclopropyl)carbonyl]amino}ethyl)benzamide] | –
100 to 500 nM | Cc1ccc2[nH]c(C(=O)NC(C)c3cccc(C(=O)NO)c3)c(C)c2c1 (stereo not shown) [Compound I-376, N-(1-{3-[(hydroxyamino)carbonyl]phenyl}ethyl)-3,5-dimethyl-1H-indole-2-carboxamide] | –
< 100 nM | Cc1ccc2[nH]c(C(=O)NC(c3ccc(C(=O)NO)cc3)C(C)(C)C)c(C)c2c1 (stereo not shown) [Compound I-329, N-(1-{4-[(hydroxyamino)carbonyl]phenyl}-2,2-dimethylpropyl)-3,5-dimethyl-1H-indole-2-carboxamide] | –
< 100 nM | C[C@@H](NC(=O)C12CC3CC(CC(C3)C1)C2)c1ccc(C(=O)NO)cc1 [Compound I-209, N-((1R)-1-{4-[(hydroxyamino)carbonyl]phenyl}ethyl)adamantane-1-carboxamide] | –
